Source: patent publication US7326698B2, “Prostaglandin analogs” (Allergan, Inc., priority 2004, dated 2008)

Columns and labels:
[1] = biological target: T1, hEP4/Gqs5 (Homo sapiens, UniProt P35408); test: FLIPR calcium signal, HEK-293(EBNA) cells; format: cell-based; details: read-out: Functional Data (EC50 in nM) hEP4
T1 construct: expressed in transfected cells; host or cells: HEK-293(EBNA)
Procedure: (§1) Methods for FLIPR™ Studies
(§2) HEK-293(EBNA) cells, stably expressing one type or subtype of recombinant human prostaglandin receptors (prostaglandin receptors expressed: hDP/Gqs5; hEP1; hEP2/Gqs5; hEP3A/Gqi5; hEP4/Gqs5; hFP; hIP; hTP), are cultured in 100 mm culture dishes in high-glucose DMEM medium containing 10% fetal bovine serum, 2 mM 1-glutamine, 250 μg/ml geneticin (G418) and 200 μg/ml hygromycin B as selection markers, and 100 units/ml penicillin G, 100 μg/ml streptomycin and 0.25 μg/ml amphotericin B.
(§3) (b) Calcium Signal Studies On the FLIPR™
(§4) Cells are seeded at a density of 5×10^4 cells per well in Biocoat® Poly-D-lysine-coated black-wall, clear-bottom 96-well plates (Becton-Dickinson) and allowed to attach overnight in an incubator at 37° C. Cells are then washed two times with HBSS-HEPES buffer (Hanks Balanced Salt Solution without bicarbonate and phenol red, 20 mM HEPES, pH 7.4) using a Denley Cellwash plate washer (Labsystems). After 45 minutes of dye-loading in the dark, using the calcium-sensitive dye Fluo-4 AM at a final concentration of 2 μM, plates are washed four times with HBSS-HEPES buffer to remove excess dye leaving 100 μl in each well. Plates are re-equilibrated to 37° C. for a few minutes.
(§5) Cells are excited with an Argon laser at 488 nm, and emission is measured through a 510-570 nm bandwidth emission filter (FLIPR™, Molecular Devices, Sunnyvale, Calif.). Drug solution is added in a 50 μl volume to each well to give the desired final concentration. The peak increase in fluorescence intensity is recorded for each well. On each plate, four wells each serve as negative (HBSS-HEPES buffer) and positive controls (standard agonists: BW245C (hDP); PGE2 (hEP1; hEP2/Gqs5; hEP3A/Gqi5; hEP4/Gqs5); PGF2α, (hFP); carbacyclin (hIP); U-46619 (hTP), depending on receptor). The peak fluorescence change in each drug-containing well is then expressed relative to the controls.
(§6) Compounds are tested in a high-throughput (HTS) or concentration-response (CoRe) format. In the HTS format, forty-four compounds per plate are examined in duplicates at a concentration of 10^−5 M. To generate concentration-response curves, four compounds per plate are tested in duplicates in a concentration range between 10^−5 and 10^−11 M. The duplicate values are averaged. In either, HTS or CoRe format each compound is tested on at least 3 separate plates using cells from different passages to give an n≧3.

[2] = biological target: T2, hTP (Homo sapiens, UniProt P21731); test: FLIPR calcium signal, HEK-293(EBNA) cells; format: cell-based; details: read-out: Functional Data (EC50 in nM) hTP
T2 construct: expressed in transfected cells; host or cells: HEK-293(EBNA)
T2 sequence (P21731 1-343): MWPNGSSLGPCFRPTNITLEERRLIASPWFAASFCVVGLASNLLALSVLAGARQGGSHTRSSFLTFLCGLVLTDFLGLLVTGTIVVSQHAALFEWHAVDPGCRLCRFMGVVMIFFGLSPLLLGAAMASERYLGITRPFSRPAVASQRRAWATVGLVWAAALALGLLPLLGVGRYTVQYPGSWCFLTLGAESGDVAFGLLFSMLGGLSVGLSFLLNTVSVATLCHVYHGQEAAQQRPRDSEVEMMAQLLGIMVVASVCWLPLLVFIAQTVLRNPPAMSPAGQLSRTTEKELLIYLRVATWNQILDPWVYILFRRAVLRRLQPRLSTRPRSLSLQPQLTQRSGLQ
Procedure: as §1, §2, §3, §4, §5, §6

[3] = biological target: T3, hEP3A/Gqi5 (Homo sapiens, UniProt P43115); test: FLIPR calcium signal, HEK-293(EBNA) cells; format: cell-based; details: read-out: Functional Data (EC50 in nM) hEP3A
T3 construct: expressed in transfected cells; host or cells: HEK-293(EBNA)
T3 sequence (P43115 1-390): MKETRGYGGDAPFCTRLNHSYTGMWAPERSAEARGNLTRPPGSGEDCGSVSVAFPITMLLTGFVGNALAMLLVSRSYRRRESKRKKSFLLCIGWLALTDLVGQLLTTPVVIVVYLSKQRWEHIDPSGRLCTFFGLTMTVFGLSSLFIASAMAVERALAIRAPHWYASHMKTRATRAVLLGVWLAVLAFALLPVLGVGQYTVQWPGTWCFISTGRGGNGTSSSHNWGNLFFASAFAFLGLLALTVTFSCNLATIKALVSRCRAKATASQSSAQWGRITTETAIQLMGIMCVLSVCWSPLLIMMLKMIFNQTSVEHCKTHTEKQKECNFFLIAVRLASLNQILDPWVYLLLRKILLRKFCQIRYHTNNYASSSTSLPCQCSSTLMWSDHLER
Procedure: as §1, §2, §3, §4, §5, §6

[4] = biological target: T4, hIP (Homo sapiens, UniProt P43119); test: FLIPR calcium signal, HEK-293(EBNA) cells; format: cell-based; details: read-out: Functional Data (EC50 in nM) hIP
T4 construct: expressed in transfected cells; host or cells: HEK-293(EBNA)
T4 sequence (P43119 whole entry): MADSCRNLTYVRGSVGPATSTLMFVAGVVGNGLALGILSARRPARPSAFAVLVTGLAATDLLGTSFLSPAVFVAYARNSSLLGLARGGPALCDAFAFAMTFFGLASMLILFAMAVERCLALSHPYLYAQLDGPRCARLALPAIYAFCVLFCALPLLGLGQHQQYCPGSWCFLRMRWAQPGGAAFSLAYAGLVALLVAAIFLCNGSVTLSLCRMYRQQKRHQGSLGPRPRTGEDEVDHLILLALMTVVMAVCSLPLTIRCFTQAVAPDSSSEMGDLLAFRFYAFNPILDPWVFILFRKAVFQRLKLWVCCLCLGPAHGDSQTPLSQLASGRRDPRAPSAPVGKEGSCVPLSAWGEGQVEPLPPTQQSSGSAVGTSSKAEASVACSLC
Procedure: as §1, §2, §3, §4, §5, §6

[5] = biological target: T5, hEP4 (Homo sapiens, UniProt P35408); test: Radioligand binding, HEK-293 cells stably expressing EP4 receptor; details: competition vs 5 nM [3H]-PGE2
T5 construct: expressed in transfected cells; host or cells: HEK-293 (membrane fraction)
T5 sequence (P35408 whole entry): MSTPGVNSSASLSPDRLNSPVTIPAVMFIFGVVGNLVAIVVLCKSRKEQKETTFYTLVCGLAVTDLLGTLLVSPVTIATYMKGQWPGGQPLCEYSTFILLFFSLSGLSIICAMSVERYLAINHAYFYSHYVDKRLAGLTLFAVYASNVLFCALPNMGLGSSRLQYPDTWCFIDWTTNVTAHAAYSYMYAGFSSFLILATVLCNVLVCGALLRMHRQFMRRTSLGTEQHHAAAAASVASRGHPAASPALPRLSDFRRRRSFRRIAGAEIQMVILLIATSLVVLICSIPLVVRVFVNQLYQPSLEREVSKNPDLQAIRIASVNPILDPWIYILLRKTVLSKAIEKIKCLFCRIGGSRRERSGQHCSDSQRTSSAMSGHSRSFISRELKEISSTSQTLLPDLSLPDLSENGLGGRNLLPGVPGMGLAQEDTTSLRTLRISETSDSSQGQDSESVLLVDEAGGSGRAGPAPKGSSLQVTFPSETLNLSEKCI
Procedure: Cells Stably Expressing EP1, EP2, EP4 and FP Receptors
HEK-293 cells stably expressing the human or feline FP receptor, or EP1, EP2, or EP4 receptors are washed with TME buffer, scraped from the bottom of the flasks, and homogenized for 30 sec using a Brinkman PT 10/35 polytron. TME buffer is added to achieve a final 40 ml volume in the centrifuge tubes (the composition of TME is 100 mM TRIS base, 20 mM MgCl2, […]; 10N HCl is added to achieve a pH of 7.4).
The cell homogenate is centrifuged at 19000 r.p.m. for 20 min at 4° C. using a Beckman Ti-60 rotor. The resultant pellet is resuspended in TME buffer to give a final 1 mg/ml protein concentration, as determined by Biorad assay. Radioligand binding competition assays vs. [^3H-]17-phenyl PGF2[…](5 nM) are performed in a 100 μl volume for 60 min. Binding reactions are started by adding plasma membrane fraction. The reaction is terminated by the addition of 4 ml ice-cold TRIS-HCl buffer and rapid filtration through glass fiber GF/B filters using a Brandel cell harvester. The filters are washed 3 times with ice-cold buffer and oven dried for one hour.
[^3H-] PGE2 (specific activity 180 Ci mmol) is used as the radioligand for EP receptors. [^3H] 17-phenyl PGF2[…]is employed for FP receptor binding studies. […] 17-phenyl PGF2[…]and non-specific binding determined with 10^−5M of unlabeled PGE2, or 17-phenyl PGF2[…], according to receptor subtype studied.

T1 sequence (P35408 whole entry): as above

| SMILES | EC50 [1] [nM] | other results |
| --- | --- | --- |
| COC(=O)CCCC#CCN1C(=O)CCCCC1C=CC(=O)Cc1ccccc1 (centres unmarked) | > 10000 | – |
| O=C(O)CCCC#CCN1C(=O)CCCCC1C=CC(=O)Cc1ccccc1 (centres unmarked) | > 10000 | – |
| O=C(O)CCCCCCN1C(=O)CCCCC1CCC(=O)Cc1ccccc1 (centres unmarked) | > 10000 | – |
| COC(=O)CCCCCCN1C(=O)CCCCC1CCC(O)Cc1ccccc1 (centres unmarked) | 3280 | EC50 [3]: > 10000 nM |
| COC(=O)CCCC#CCN1C(=O)CCCCC1CCC(=O)Cc1ccccc1 (centres unmarked) | > 10000 | – |
| O=C(O)CCCCCCN1C(=O)CCCCC1C=CC(=O)Cc1ccccc1 (centres unmarked) | > 10000 | – |
| COC(=O)CCCCCCN1C(=O)CCCCC1C=CC(=O)Cc1ccccc1 (centres unmarked) | > 10000 | – |
| O=C(O)CCCCCCN1C(=O)CCCCC1C=CC(O)Cc1ccccc1 (centres unmarked) | > 10000 | – |
| O=C(O)CCC/C=C\CN1C(=O)CCCCC1CCC(=O)Cc1ccccc1 (centres unmarked) | > 10000 | – |
| COC(=O)CCC/C=C\CN1C(=O)CCCCC1CCC(O)Cc1ccccc1 (centres unmarked) | 2140 | – |
| O=C(O)CCC/C=C\CN1C(=O)CCCCC1CCC(O)Cc1ccccc1 (centres unmarked) | 116 | IC50 [5]: > 10000 nM |
| COC(=O)CCCCCCN1C(=O)CCCCC1C=CC(O)Cc1ccccc1 (centres unmarked) [drawing 36] | > 10000 | – |
| COC(=O)CCCCCCN1C(=O)CCCCC1C=CC(O)Cc1ccccc1 (centres unmarked) [drawing 40] | > 10000 | – |

Continued, in another order:

| EC50 [1] [nM] | SMILES | other results |
| --- | --- | --- |
| 3080 | COC(=O)CCCC#CCN1C(=O)CCCCC1C=CC(O)Cc1ccccc1 (centres unmarked) | – |
| 1230 | O=C(O)CCCC#CCN1C(=O)CCCCC1C=CC(O)Cc1ccccc1 (centres unmarked) | EC50 [2]: 278 nM |
| > 10000 | COC(=O)CCCCCCN1C(=O)CCCCC1CCC(=O)Cc1ccccc1 (centres unmarked) | – |
| 451 | O=C(O)CCCCCCN1C(=O)CCCCC1CCC(O)Cc1ccccc1 (centres unmarked) | EC50 [2]: 549 nM; EC50 [4]: 1640 nM |
| 2390 | O=C(O)CCCC#CCN1C(=O)CCCCC1CCC(=O)Cc1ccccc1 (centres unmarked) | EC50 [2]: 41 nM |
| > 10000 | COC(=O)CCCC#CCN1C(=O)CCCCC1CCC(O)Cc1ccccc1 (centres unmarked) | – |
| 2000 | O=C(O)CCCC#CCN1C(=O)CCCCC1CCC(O)Cc1ccccc1 (centres unmarked) | EC50 [2]: 112 nM |
| > 10000 | COC(=O)CCC/C=C\CN1C(=O)CCCCC1C=CC(O)Cc1ccccc1 (centres unmarked) | – |
| 266 | O=C(O)CCC/C=C\CN1C(=O)CCCCC1C=CC(O)Cc1ccccc1 (centres unmarked) | EC50 [2]: 221 nM |
| 13300 | COC(=O)CCC/C=C\CN1C(=O)CCCCC1CCC(=O)Cc1ccccc1 (centres unmarked) | IC50 [5]: > 10000 nM |
